PubChem BioAssay (NCI)
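A five-concentration, 48-hour dose response in 96-well plates underlies each endpoint, interpolated linearly between surrounding concentrations. Here, GI50 denotes the concentration required for 50% inhibition of growth. At the TGI there is no net growth.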

Experiments:
Assay in all cases: NCI-60 cell line screen, 48 h
HL-60(TB) leukemia = test system: HL-60(TB) leukemia
SK-MEL-5 melanoma = test system: SK-MEL-5 melanoma
SK-MEL-28 melanoma = test system: SK-MEL-28 melanoma
SN12C renal = test system: SN12C renal
COLO 205 colon = test system: COLO 205 colon
A549 NSCLC = test system: A549 NSCLC
IGROV1 ovarian = test system: IGROV1 ovarian
SNB-19 CNS = test system: SNB-19 CNS
SK-OV-3 ovarian = test system: SK-OV-3 ovarian
NCI-H226 lung = test system: NCI-H226 lung
HS 578T breast = test system: HS 578T breast
SNB-75 CNS = test system: SNB-75 CNS
MDA-MB-231 breast = test system: MDA-MB-231 breast
OVCAR-5 ovarian = test system: OVCAR-5 ovarian
OVCAR-3 ovarian = test system: OVCAR-3 ovarian
K-562 leukemia = test system: K-562 leukemia
BT-549 breast = test system: BT-549 breast
MDA-MB-435 = test system: MDA-MB-435
SW-620 colon = test system: SW-620 colon
DU-145 prostate = test system: DU-145 prostate
NCI-H460 lung = test system: NCI-H460 lung
NCI-H522 lung = test system: NCI-H522 lung
A498 renal = test system: A498 renal
OVCAR-4 ovarian = test system: OVCAR-4 ovarian
PC-3 prostate = test system: PC-3 prostate
RXF 393 renal = test system: RXF 393 renal
HCC-2998 colon = test system: HCC-2998 colon
NCI/ADR-RES ovarian = test system: NCI/ADR-RES ovarian
MALME-3M melanoma = test system: MALME-3M melanoma

## Cn1cc(NC(=O)c2cc(NC(=O)c3ccc(/C=C/c4ccccc4)cc3)cn2C)cc1C(=O)NCCCN1CCOCC1
HL-60(TB) leukemia
  GI50: 7.49 µM
  TGI: > 28 µM
SK-MEL-5 melanoma
  GI50: 14 µM
  TGI: > 28 µM
SK-MEL-28 melanoma
  GI50: > 28 µM
  TGI: > 28 µM
SN12C renal
  GI50: 5.28 µM
  TGI: > 28 µM
COLO 205 colon
  GI50: > 28 µM
  TGI: > 28 µM
A549 NSCLC
  GI50: > 28 µM
  TGI: > 28 µM
IGROV1 ovarian
  GI50: > 28 µM
  TGI: > 28 µM
SNB-19 CNS
  GI50: > 28 µM
  TGI: > 28 µM
SK-OV-3 ovarian
  GI50: > 28 µM
  TGI: > 28 µM
NCI-H226 lung
  GI50: 24.1 µM
  TGI: > 28 µM
HS 578T breast
  GI50: 6.14 µM
  TGI: > 28 µM
SNB-75 CNS
  GI50: 4.42 µM
  TGI: 26.3 µM
MDA-MB-231 breast
  GI50: 9.18 µM
  TGI: > 28 µM
OVCAR-5 ovarian
  GI50: > 28 µM
  TGI: > 28 µM
OVCAR-3 ovarian
  GI50: 6.82 µM
  TGI: > 28 µM
K-562 leukemia
  GI50: 4.79 µM
  TGI: 16.1 µM
BT-549 breast
  GI50: 4.84 µM
  TGI: 18.4 µM
MDA-MB-435
  GI50: 8.59 µM
  TGI: > 28 µM
SW-620 colon
  GI50: 6.89 µM
  TGI: 18.7 µM
DU-145 prostate
  GI50: 10.1 µM
  TGI: > 28 µM
NCI-H460 lung
  GI50: 9.62 µM
  TGI: > 28 µM
NCI-H522 lung
  GI50: 6.56 µM
  TGI: 25.2 µM
A498 renal
  GI50: > 28 µM
  TGI: > 28 µM
OVCAR-4 ovarian
  GI50: > 28 µM
  TGI: > 28 µM
PC-3 prostate
  GI50: 13 µM
  TGI: > 28 µM
RXF 393 renal
  GI50: 2.08 µM
  TGI: 18 µM
HCC-2998 colon
  GI50: 16.6 µM
  TGI: > 28 µM
NCI/ADR-RES ovarian
  GI50: 7.31 µM
  TGI: 24.2 µM
MALME-3M melanoma
  GI50: 13.8 µM
  TGI: > 28 µM
